In one assay the test system is dogs. Particulars: prior art; cited from earlier work.
For assay [1] the following is noted: prior art; cited from earlier work.
The conditions of assay [2]: prior art; cited from earlier work. This is another data set of the same source.
The test system of assay [3] is tetrabenazine-induced sedation and depression in mice. Description: Antagonism of tetrabenazine-induced depression in mice (prevention of ptosis and exploratory loss), orally at 1 hour post-drug. The format is in vivo, mice (Carworth CF1 S female). The following applies: Mus musculus, oral, tetrabenazine 32 mg/kg intraperitoneally 30 minutes after drug. The method, then:
(Everett, "The Dopa Response Potentiation Test and Its Use in Screening for Antidepressant Drugs", pp. 164-167 in "Antidepressant Drugs" [Proceedings of the First International Symposium], S. Garattini and M. N. G. Dukes, eds., 1967). Groups of 10 Carworth CF1 S female mice, 18-21 g each, were fasted 1.5 hours and were intubated with antagonist compounds at oral doses of 0, 5, 25, and 125 mg/kg or 0, 1, 3, 9, 27, and 81 mg/kg in 0.20 ml of 1% Methocel (methylcellulose). The mice were challenged 30 minutes later with tetrabenazine (as the methane-sulfonate), 32 mg/kg intraperitoneally (dissolved in 0.20 ml 0.05 M KCl at pH 2.0). One hour after antagonist (30 minutes after tetrabenazine), the mice were examined for signs of exploratory activity and ptosis (eyelid closure). Normal exploratory activity (relief from sedation) was recorded when a mouse lifted by the tail from a group of 10 in a testing box and placed on a stainless steel testing box lid (12.5"×8" with 0.33" mesh) either turned its head horizontally 30° in both directions or moved to the edge of the screen within 10 seconds after being placed on the screen. Relief from ptosis was recorded when exactly two seconds after placing the mouse facing the observer, lid closure was less than 50% in both eyes. For comparison, the marketed antidepressant amitriptylene was also tested, and an ED50 (effective dose in 50% of the cases) was determined. The lower the ED50, the better the antidepressant.

Setting [4] is: read-out: ED50 For Prevention of Exploratory Loss.
The mark [5] stands for this setting: read-out: ED50 For Prevention of Ptosis.

Where two headings read alike, the source gives them in different places.

The values below come from US4343812A, “Antidepressant 2-amino-and-2-(substituted amino)-cis-hexahydro-carbazoles, compositions and use” (E. I. Du Pont de Nemours and Company, priority 1980, dated 1982).

As for `CN(C)C1CCc2[nH]c3cc(O)ccc3c2C1` (stereo not shown), the cardiotonic effects entry with dogs is recorded as “cardiotonic effects”.

With `CN(C)C1CCc2[nH]c3ccccc3c2C1` (stereo not shown), the “analgetic and psychotropic activity” value in assay [1] was “analgetic and psychotropic activity”.

Regarding `CNCCCC1CN(c2ccccc2)c2ccccc21` (stereo not shown), the antidepressant activity result in assay [2] is on record as “antidepressant activity”.

What is called ED50 is the dose at which the effect has come halfway, by size or by number of responders. Regarding `CCCOc1ccc2c(c1)N[C@@H]1CC(NC(C)=O)CC[C@H]21` (stereo partly shown) [Compound 1j], the figures for the ED50 in assay [3] (setting [4]) and in assay [3] (setting [5]) were 0.99 mg/kg and 0.79 mg/kg, respectively.

Regarding `CC(=O)NC1CCc2c([nH]c3ccc(Cl)cc23)C1` (stereo not shown) [Compound 2c], the ED50 was 6.5 mg/kg in assay [3] (setting [4]) and 2.4 mg/kg in assay [3] (setting [5]).

As for `Cl.NC1CCc2c([nH]c3ccccc23)C1` (stereo not shown) [Compound 3a, 2,3,4,9-Tetrahydro-1H-carbazol-2-amine hydrochloride], the ED50 in assay [3] (setting [4]) was found to be 8 mg/kg; in assay [3] (setting [5]) it was 4 mg/kg.

Regarding `CC(=O)NC1CC[C@@H]2c3cc(F)ccc3N[C@@H]2C1` (stereo partly shown) [Compound 1b], the ED50 in assay [3] (setting [4]) stood at 4.2 mg/kg; in assay [3] (setting [5]), 2.7 mg/kg.

`CC(=O)NC1CCc2c([nH]c3cc(Cl)cc(Cl)c23)C1` (stereo not shown) [Compound 2f]: the median effective dose (ED50) in assay [3] (setting [4]) turned out to be 4.7 mg/kg; in assay [3] (setting [5]), 3.3 mg/kg.
